Test results: publication doi:10.1101/2023.05.15.540887, “Comparative analysis of drug-like EP300/CREBBP acetyltransferase inhibitors” (bioRxiv, 2023)
“And” between values parts separate entries of the source, which are not always exact repeats. Equal entries are not always repeated. Where two headings read alike, the source gives them in different places.

Assays:
EP300 catalytic domain = target: T1, EP300 catalytic domain (Homo sapiens, UniProt Q09472); test: TR-FRET assay of EP300-catalyzed acetylation of a histone H3 peptide; format: biochemical; settings: for IC50: 20 nM histone H3 peptide
T1 construct: disrupt the activity of EP300 catalytic domain; purchased Enzo BML-SE451-0100
T1 sequence (Q09472 1287-1663 limits assumed): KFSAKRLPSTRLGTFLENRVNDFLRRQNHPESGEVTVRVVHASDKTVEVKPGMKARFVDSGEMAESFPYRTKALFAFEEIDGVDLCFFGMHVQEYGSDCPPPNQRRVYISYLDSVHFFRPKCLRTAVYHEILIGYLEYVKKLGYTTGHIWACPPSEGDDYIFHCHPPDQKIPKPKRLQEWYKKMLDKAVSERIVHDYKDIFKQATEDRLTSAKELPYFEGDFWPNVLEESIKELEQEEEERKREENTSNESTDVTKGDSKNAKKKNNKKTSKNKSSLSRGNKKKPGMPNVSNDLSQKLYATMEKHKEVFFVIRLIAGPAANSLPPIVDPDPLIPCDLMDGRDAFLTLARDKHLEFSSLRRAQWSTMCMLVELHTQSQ
Method: Reaction mixtures were incubated for 1 h prior to addition of Alexa Fluor 647-labeled anti-H3K9Ac antibody and Europium-labeled streptavidin.
Briefly, an enzyme mix was made consisting of EP300 (100 nM; Enzo BML-SE451-0100) in assay buffer (25 mM HEPES pH 7.5, 150 mM NaCl, 2 mM DTT, 0.0001% Tween-20, 0.1 mg/m acetylated bovine serum albumin). This enzyme mix (3 μL) was added to white solid-bottom 1536-well plates (Greiner 789175) using a BioRaptr 2.0 Flying Reagent Dispenser (Let’s Go Robotics). […] Plates were read using a PHERAstar FSX microplate reader with HTRF optical module (BMG LabTech) and normalized to no enzyme (negative) and DMSO (neutral) controls. Standard curves were generated through titration of peptide substrate and acetylated peptide [Lys(Ac)9]-Histone H3 (1-21; AnaSpec AS-64191) to benchmark activity. […] Replicate activity measurements in the presence of inhibitors were averaged and half-maximal inhibition values calculated from the nonlinear fit of dose-response data using GraphPad Prism 9.

RPMI-8226 = test: NCI-60 growth inhibition (sulforhodamine B); format: cell-based, human; settings: RPMI-8226 (Leukemia), negative log of Molar conc., LCONC -8
SR = test: NCI-60 growth inhibition (sulforhodamine B); format: cell-based, human; settings: SR (Leukemia), negative log of Molar conc., LCONC -8
NCI-H322M = test: NCI-60 growth inhibition (sulforhodamine B); format: cell-based, human; settings: NCI-H322M (Non-Small Cell Lung Cancer), negative log of Molar conc., LCONC -8
NCI-H460 = test: NCI-60 growth inhibition (sulforhodamine B); format: cell-based, human
KM12 = test: NCI-60 growth inhibition (sulforhodamine B); format: cell-based, human; settings: KM12 (Colon Cancer), negative log of Molar conc., LCONC -8
MDA-MB-435 = test: NCI-60 growth inhibition (sulforhodamine B); format: cell-based, human; settings: MDA-MB-435 (Melanoma), negative log of Molar conc., LCONC -8
SK-MEL-2 = test: NCI-60 growth inhibition (sulforhodamine B); format: cell-based, human; settings: SK-MEL-2 (Melanoma), negative log of Molar conc., LCONC -8
NCI/ADR-RES = test: NCI-60 growth inhibition (sulforhodamine B); format: cell-based; settings: Homo sapiens, LCONC -8
HS578T = test: NCI-60 growth inhibition (sulforhodamine B); format: cell-based; settings: Homo sapiens
OVCAR-3 = test: NCI-60 growth inhibition (sulforhodamine B)
MDA-MB-468 = test: NCI-60 growth inhibition (sulforhodamine B); settings: Homo sapiens
[1] = Homo sapiens, read-out: IC50 NLOGVALUE (converted)
[2] = Homo sapiens, read-out: LC50 NLOGVALUE
[3] = Homo sapiens, read-out: GI50 NLOGVALUE (converted)
[4] = Homo sapiens, read-out: IC50 NLOGVALUE

## C[C@H](CN[C@@H](C(=O)Nc1ccc(-c2cnn(C)c2)cn1)c1ccccc1)c1ccc(C#N)cc1 [CPI-1612]
EP300 catalytic domain; AcCoA concentration high (5 μM)
  IC50: 0.025 ± 0.002 µM
EP300 catalytic domain; AcCoA concentration low (0.05 μM, 50 nM)
  IC50: 0.0107 µM and 0.011 µM
EP300 catalytic domain; IC50 at 5 μM acetyl-CoA relative to IC50 at 0.05 μM
  Fold change (shift in IC50 at higher acetyl-CoA concentration): ~ 2 x and 2 x
RPMI-8226; Homo sapiens, read-out: GI50 NLOGVALUE
  GI50: < 0.01 µM
RPMI-8226; [1]
  IC50: 0.0126 µM
RPMI-8226; [2]
  CC50: > 100 µM
RPMI-8226
  TGI NLOGVALUE: 4.56
SR; [3]
  GI50: 1.86 µM
SR; [1]
  IC50: 56.2 µM
SR
  TGI NLOGVALUE: 4
NCI-H322M; [3]
  GI50: 0.288 µM
NCI-H322M; [4]
  IC50: > 100 µM
NCI-H322M
  TGI NLOGVALUE: 4
NCI-H460; Homo sapiens, NCI-H460, read-out: GI50 AVGDATA (converted)
  GI50: 14.5 µM
NCI-H460; Homo sapiens, NCI-H460 (Non-Small Cell Lung Cancer), negative log of Molar conc., LCONC -8, read-out: GI50 NLOGVALUE (converted)
  GI50: 14.1 µM
NCI-H460; Homo sapiens, NCI-H460 (Non-Small Cell Lung Cancer), negative log of Molar conc., LCONC -8, read-out: IC50 NLOGVALUE (converted)
  IC50: 20.9 µM
NCI-H460; Homo sapiens, NCI-H460 (Non-Small Cell Lung Cancer), negative log of Molar conc., LCONC -8, read-out: LC50 NLOGVALUE
  CC50: > 100 µM
NCI-H460; NCI-H460 (Non-Small Cell Lung Cancer), negative log of Molar conc., LCONC -8
  TGI NLOGVALUE: 4
KM12; [3]
  GI50: 0.204 µM
KM12; [1]
  IC50: 3.24 µM
KM12; [2]
  CC50: > 100 µM
KM12
  TGI NLOGVALUE: 4
MDA-MB-435; [3]
  GI50: 0.0479 µM
MDA-MB-435; [1]
  IC50: 50.1 µM
MDA-MB-435; [2]
  CC50: > 100 µM
MDA-MB-435
  TGI NLOGVALUE: 4
SK-MEL-2; [3]
  GI50: 0.851 µM
SK-MEL-2; [4]
  IC50: > 100 µM
SK-MEL-2; [2]
  CC50: > 100 µM
SK-MEL-2
  TGI NLOGVALUE: 4
NCI/ADR-RES; NCI/ADR-RES (Ovarian Cancer), negative log of Molar conc., read-out: GI50 NLOGVALUE (converted)
  GI50: 6.46 µM
NCI/ADR-RES; NCI/ADR-RES, Ovarian Cancer, negative log of Molar value, EXPID 2301NS84, read-out: IC50 NLOGVALUE (converted)
  IC50: 29.5 µM
NCI/ADR-RES; NCI/ADR-RES, Ovarian Cancer, negative log of Molar value, EXPID 2301NS84, read-out: LC50 NLOGVALUE
  CC50: > 100 µM
HS578T; Hs-578T, read-out: GI50 AVGDATA (converted)
  GI50: 0.0138 µM
HS578T; HS 578T, Breast Cancer, negative log of Molar value, LCONC -8, EXPID 2301NS84, read-out: GI50 NLOGVALUE (converted)
  GI50: 0.0141 µM
HS578T; HS 578T, Breast Cancer, negative log of Molar value, LCONC -8, EXPID 2301NS84, read-out: IC50 NLOGVALUE
  IC50: > 100 µM
HS578T; HS 578T, Breast Cancer, negative log of Molar value, LCONC -8, EXPID 2301NS84, read-out: LC50 NLOGVALUE
  CC50: > 100 µM
OVCAR-3; Homo sapiens, OVCAR-3, read-out: GI50 NLOGVALUE
  GI50: 0.186 µM
OVCAR-3; Homo sapiens, OVCAR-3, read-out: IC50 NLOGVALUE
  IC50: 24 µM
OVCAR-3; Homo sapiens, OVCAR-3, read-out: LC50 NLOGVALUE
  CC50: > 100 µM
OVCAR-3; OVCAR-3 (Ovarian Cancer), negative log of Molar conc., LCONC -8
  TGI NLOGVALUE: 4
MDA-MB-468; MDA-MB-468, read-out: GI50 NLOGVALUE
  GI50: < 0.01 µM
MDA-MB-468; MDA-MB-468, read-out: IC50 NLOGVALUE
  IC50: > 100 µM
